Source: patent publication US20260097047A1, “Small molecule inhibitors of the ribosome biogenesis factor NVL2” (Board of Regents, The University of Texas System, priority 2023, published 2026)
Where two headings read alike, the source gives them in different places. Each block holds one molecule with its values, some of them ahead of it.

What was measured:
NVL = target: T1, NVL (Homo sapiens, UniProt O15381); assay: Photo-crosslinking, affinity purification and probe displacement of NVL in cells; assay type: binding; set-up: endogenous in cells; conditions: NVL-FLAG knock-in cell line, increasing doses
T1 sequence (O15381 1-856): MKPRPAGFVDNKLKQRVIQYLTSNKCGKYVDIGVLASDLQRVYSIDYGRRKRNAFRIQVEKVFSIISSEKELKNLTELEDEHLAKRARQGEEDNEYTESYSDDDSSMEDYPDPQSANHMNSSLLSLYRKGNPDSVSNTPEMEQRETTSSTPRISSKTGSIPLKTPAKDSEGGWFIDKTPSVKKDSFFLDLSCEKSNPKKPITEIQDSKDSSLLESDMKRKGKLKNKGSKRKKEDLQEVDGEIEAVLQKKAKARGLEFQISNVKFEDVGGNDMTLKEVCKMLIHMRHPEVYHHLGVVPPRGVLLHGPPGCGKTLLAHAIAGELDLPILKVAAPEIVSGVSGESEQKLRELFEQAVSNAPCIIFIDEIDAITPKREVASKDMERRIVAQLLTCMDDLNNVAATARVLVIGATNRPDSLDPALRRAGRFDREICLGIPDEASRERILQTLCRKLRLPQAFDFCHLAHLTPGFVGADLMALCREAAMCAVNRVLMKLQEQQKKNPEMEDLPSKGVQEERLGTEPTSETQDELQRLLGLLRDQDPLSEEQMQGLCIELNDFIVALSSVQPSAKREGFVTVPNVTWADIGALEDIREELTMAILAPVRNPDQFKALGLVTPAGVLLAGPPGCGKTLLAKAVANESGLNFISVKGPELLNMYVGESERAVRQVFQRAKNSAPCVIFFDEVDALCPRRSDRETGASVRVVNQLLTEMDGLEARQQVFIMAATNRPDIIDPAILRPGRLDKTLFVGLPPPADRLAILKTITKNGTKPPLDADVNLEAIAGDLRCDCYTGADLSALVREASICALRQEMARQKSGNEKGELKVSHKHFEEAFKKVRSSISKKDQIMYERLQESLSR
Description: To test whether NVL2 mutations prevent compound binding, we synthesized MM0514, a crosslinker derivative of MM017. MM0514 contains an aryl azide, and thus is capable of covalently modifying target proteins following exposure to UV light. MM0514 also contains an alkyne group providing a “handle” to purify bound proteins using click chemistry. Critically, MM0514 retains on-target activity to HCT116 cells since NVL2^R403W mutant cells are resistant. We crosslinked either parental or NVL2^R403W HCT116 cells to MM0514 and analyzed NVL2 binding. […] To characterize the binding site, we solved the cryo-EM structure of NVL2 with MM017. MM017 binds to a single site in the asymmetric hexamer near the D subunit. Consistent with our binding data, the mutations map near the binding site, including R403, which is mutated to tryptophan in a resistant clone and predicted to prevent binding of MM017 or related analogs. The cryo-EM structure of NVL2 with MM017 provides further evidence of target identification and also a tool for optimizing a bioavailable compound.
To assess whether MM017 binds directly to NVL in cells, we used a MM017 crosslinker (Probe compound (2), Table A) that is UV-activatable and contains an alkyne that can be coupled to biotin for affinity purification. […]

HCT116 cells = assay: Cell viability assay (CellTiter-Glo, 72 hours) in HCT116 human colorectal cancer cells; assay type: cell-based
Procedure, shortened: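 2,000 cells/well adhered overnight, then compound added by digital dispenser with DMSO normalized to 0.5%. Viability read after 72 h at 37 °C by ATP-based CellTiter-Glo luminescence. IC50 from ten-point curves baseline-corrected to vehicle, five-parameter asymmetric least-squares fit.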

p53 and p21 = p53 and p21 protein levels in HCT116 cells; assay type: cell-based, human
Description: Inhibition of 60S ribosome biogenesis is known to induce the stability and upregulation of p53, which could serve as a potential pharmacodynamics marker for MM017 in HCT116 cells. […] We used PRISM (Broad Institute) to evaluate the selectivity of MM017 across 902 cancer cell lines and then correlated this selectivity to 1,215 clinical and pre-clinical compounds in the PRISM database. […] These observations indicate that oxaliplatin and carmofur, like MM017, target ribosome biogenesis.

[1] = Homo sapiens, HCT-116, read-out: IC50s (cellular activity of MM017 derivatives)
[2] = Table 9, HCT116, 72 hours, read-out: Activity
[3] = Table 7, cell viability assay, CellTiter-Glo, 72 hours, scaffold drawing 42 with R^2, R^3, X/Y, Z, read-out: Activity
[4] = Table 8, analogs of scaffold drawing 43 defined by R^2, R^3, X/Y, W, read-out: Activity (IC50 class, cell viability assay)
[5] = Table 6, HCT116, 72 hours, read-out: Activity

SMILES: COCCN1C(=O)c2ccccc2Sc2cc(NC(=O)c3ccc(OC)cc3)ccc21 [compound 3]
- displacement of MM017-probe from NVL (NVL): more effectively displaced MM017-probe
- IC50 (HCT116 cells; [1]): 360 nM

SMILES: Cc1cnc(CNC(=O)c2c(=O)c3ccc(N4CCCN(C)CC4)nc3n3c2sc2ccccc23)cn1 [CX-5461, reference compound]
- p53 levels in parental HCT116 cells (p53 and p21): dose-dependent increase in the levels of p53

SMILES: COC1CC(C(=O)Nc2ccc3c(c2)C(C#N)c2ccccc2C(=O)N3CC#CCF)C1 (stereo not drawn) [Table 9: —CH2CCCH2F; cis-3-MeOcBu; CHCN]
- IC50 (HCT116 cells; [2]): < 500 nM

SMILES: CC#CCN1C(=O)c2ccccc2Cc2cc(Nc3nccnc3C#N)ccc21 [3-((5-(But-2-yn-1-yl)-6-oxo-6,11-dihydro-5H-dibenzo[b,e]azepin-2-yl)amino) pyrazine-2-carbonitrile]
- IC50 (HCT116 cells; Homo sapiens, HCT-116, Table 5, HCT116, 72 hours, read-out: Activity): < 500 nM

SMILES: O=C(Nc1ccc2c(c1)Cc1ccccc1C(=O)N2CC#CC1CC1)C1CC2(CC(=NO)C2)C1 (centres unmarked)
- IC50 (HCT116 cells; [2]): < 500 nM

SMILES: CC#CCN1C(=O)c2ccccc2Sc2cc(NC34CC(OC)(C3)C4)cnc21
- IC50 (HCT116 cells; [5]): < 500 nM

SMILES: CC1c2ccccc2C(=O)N(CC#CC2CC2)c2ccc(NC(=O)C=CCO)cc21 (centres unmarked) [Table 9: —CH2CC^cPr; CH═CHCH2OH; CHMe]
- IC50 (HCT116 cells; [2]): < 500 nM

SMILES: CC#CCN1C(=O)c2ccccc2C(C)c2cc(NC(=O)C34CC(OC)(C3)C4)ccc21 (centres unmarked)
- IC50 (HCT116 cells; [2]): < 500 nM

SMILES: CC#CCN1C(=O)c2ccccc2Sc2cc(NC(=O)NC3COC3)ccc21 [Table 3: —CH2CCMe; oxetan-3-yl; CH/CH]
- IC50 (HCT116 cells; Table 3, HCT116, 72 hours, read-out: Activity): < 500 nM

SMILES: COC12CC(C(=O)Nc3cnc4c(c3)Sc3ccccc3C(=O)N4CC#CC(F)(F)F)(C1)C2
- IC50 (HCT116 cells; [4]): < 500 nM

SMILES: CC#CCN1C(=O)c2ccccc2Sc2cc(NC(=O)Nc3ccc(OC(F)F)cc3)ccc21 [Table 3: —CH2CCMe; 4-F2HCOPh; CH/CH, 1-(10-(But-2-yn-1-yl)-11-oxo-10,11-dihydrodibenzo[b,f][1,4]thiazepin-7-yl)-3-(4-(difluoromethoxy)phenyl) urea]
- IC50 (HCT116 cells; Homo sapiens, HCT-116, Table 3, HCT116, 72 hours, read-out: Activity): < 500 nM

SMILES: CC=CCN1C(=O)c2ccccc2Sc2cc(Nc3ncccc3C)ccc21
- IC50 (HCT116 cells; Table 5, HCT116, 72 hours, read-out: Activity): < 500 nM

SMILES: COCCN1C(=O)c2ccccc2Sc2cc(NC(=O)c3cccc(CCC#N)c3)ccc21 [—(CH2)2OMe; 3-(2′-CNEt)Ph; CH/CH; S]
- IC50 (HCT116 cells; [3]): < 500 nM

SMILES: O=C1c2ccccc2Sc2cc(NC3CC4(COC4)C3)ccc2N1CC#CCl
- IC50 (HCT116 cells; [5]): < 500 nM

SMILES: CC#CCN1C(=O)c2ccccc2Sc2cc(NC(=S)NC3CC(COC)C3)ccc21 (centres unmarked) [Table 4: —CH2CCMe; 3-MeOCH2-cBu; CH]
- IC50 (HCT116 cells; Table 4, HCT116, 72 hours, read-out: Activity): < 500 nM

SMILES: COCCN1C(=O)c2ccccc2Sc2cc(NC(=O)c3ccccc3OC)ccc21 [compound 5]
- IC50 (HCT116 cells; [1]): 13000 nM

SMILES: CC#CCN1C(=O)c2cc(F)ccc2Sc2cc(NC(=O)C3CC4(COC4)C3)ccc21
- IC50 (HCT116 cells; [4]): < 500 nM

Continued, values first:

- IC50 (HCT116 cells; [3]): 1000 to 5000 nM
SMILES: COCCN1C(=O)c2ccccc2Sc2cc(NC(=O)c3ccc(F)cc3)ccc21 [—(CH2)2OMe; 4-FPh; CH/CH; S]

- IC50 (HCT116 cells; [4]): < 500 nM
SMILES: CC#CCN1C(=O)c2ccc(Cl)cc2Sc2cc(NC(=O)CC3COC3)ccc21 [—CH2CCMe; (oxetan-3-yl)CH2; CCl/CH; CH]

- IC50 (HCT116 cells; [4]): < 500 nM
SMILES: CC#CCN1C(=O)c2ccc(Cl)cc2Sc2cc(NC(=O)[C@H]3C[C@@H]3COC)ccc21 (relative stereo) [—CH2CCMe; trans-2-MeOCH2-cPr; CCl/CH; CH]

- IC50 (HCT116 cells; [4]): < 500 nM
SMILES: CC#CCN1C(=O)c2cc(F)ccc2Sc2cc(NC(=O)C(C)CCOC)ccc21 (centres unmarked) [—CH2CCMe; MeO(CH2)2CHMe-; CH/CF; CH]

- IC50 (HCT116 cells; [4]): < 500 nM
SMILES: CC#CCN1C(=O)c2ccccc2Sc2cc(NC(=O)[C@@H]3C[C@H]3C(=O)OC)cnc21 (relative stereo) [—CH2CCMe; trans-2-MeO2C-cPr; CH/CH; N]

- IC50 (HCT116 cells; [4]): < 500 nM
SMILES: CC#CCN1C(=O)c2cc(F)ccc2Sc2cc(NC(=O)[C@H]3C[C@@H](OC)C3)cnc21 [—CH2CCMe; cis-3-MeOcBu; CH/CF; N]

- IC50 (HCT116 cells; [4]): < 500 nM
SMILES: CC#CCN1C(=O)c2cc(F)ccc2Sc2cc(NC(=O)C3COC3)ccc21 [—CH2CCMe; oxetan-3-yl; CH/CF; CH]

- IC50 (HCT116 cells; [4]): < 500 nM
SMILES: CC#CCN1C(=O)c2ccccc2Sc2cc(NC(=O)C3CCC3)ccc21 [—CH2CCMe; cBu; CH/CH; CH]
